Target: Tyrosine-protein kinase BTK (Homo sapiens, UniProt Q06187)
Sequence (Q06187 whole entry): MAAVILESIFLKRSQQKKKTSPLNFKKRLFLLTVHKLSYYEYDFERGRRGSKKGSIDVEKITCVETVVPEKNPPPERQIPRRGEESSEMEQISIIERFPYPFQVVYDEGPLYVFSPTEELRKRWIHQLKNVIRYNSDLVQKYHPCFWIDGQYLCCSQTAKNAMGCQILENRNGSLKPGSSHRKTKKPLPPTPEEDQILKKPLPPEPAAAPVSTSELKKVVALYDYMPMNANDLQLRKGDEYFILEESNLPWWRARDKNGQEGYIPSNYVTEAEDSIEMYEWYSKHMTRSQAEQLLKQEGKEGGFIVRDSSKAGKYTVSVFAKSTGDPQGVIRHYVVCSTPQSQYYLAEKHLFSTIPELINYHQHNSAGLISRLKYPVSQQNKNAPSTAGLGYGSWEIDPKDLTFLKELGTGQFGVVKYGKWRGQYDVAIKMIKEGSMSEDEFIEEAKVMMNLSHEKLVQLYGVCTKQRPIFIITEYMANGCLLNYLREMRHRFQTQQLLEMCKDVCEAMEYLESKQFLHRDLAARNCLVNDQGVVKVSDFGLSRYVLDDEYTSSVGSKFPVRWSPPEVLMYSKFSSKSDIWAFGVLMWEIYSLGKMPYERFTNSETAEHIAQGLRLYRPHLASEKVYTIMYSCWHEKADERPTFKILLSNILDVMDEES

- IC50: > 100 nM
SMILES: C=CC(=O)Nc1ccccc1Nc1nc(Nc2ccc(OCCCOC3(CC)OCC(C)(C)CO3)cc2)ncc1F [US11440904, Compound 9]
